Data taken from patent publication US20100040607A1, “Combination Therapy with Inhibitors of HMGB and Caspase for the Treatment of Inflammatory Diseases” (priority 2005, published 2010).
Peptide text beside a SMILES is read from it. * marks the point of attachment. Cbz = O=C(OCc1ccccc1)*; CH2F = FC*

Legend:
RAW 264.7 cells [1] = assay: HMGB1 translocation in LPS-treated RAW 264.7 cells by immunofluorescence; type: cell-based, Murine; details: LPS 100 ng/ml, 1 μM, 16 hours
Description: RAW 264.7 cells were plated in 8-well slide chambers (Lab-Tek, Nalge Nunc Internationals, Naperville, Ill.) and used at 60% confluence. Cells were incubated with LPS (100 ng/ml) alone, or LPS (100 ng/ml) with either 1 μM Z-VAD-FMK (VAD) or Z-FA-FMK control peptide for 16 hours in Opti-MEM I medium. Cells were washed 3 times with phosphate-buffered saline (PBS) at pH 7.2 and fixed in 2% neutral formalin for 20 minutes at room temperature. Polyclonal anti-HMGB1 antibody was added at a concentration of 2.5 μg/ml and incubated for an additional 30 minutes at room temperature. FITC-labeled anti-rabbit IgG was added (1:300 dilution, Sigma, St. Louis, Mo.; Cat. No. F9887). Cells were then washed 3 times with PBS (pH 7.2) with 0.1% saponin (Sigma Cat. #S4521), and mounted for fluorescent confocal microscopy analysis. To mount cells on a slide, one drop of VECTASHIELD mounting medium (Vector Lab, Cat#H-10000) was dispensed on to the section and allowed to cover the entire section. A coverslip was added, and the slides were imaged using a Zeiss, Axiovert 200 microscope (Gottingen, Germany).

RAW 264.7 cells [2] = assay: LPS-induced HMGB1 protein in RAW 264.7 cell supernatants by Western blot; type: cell-based, Murine; details: LPS 200 ng/ml, 0.1 to 10 μM, 16 h
Description: Treatment of RAW 264.7 cells with caspase inhibitor and Western blotting of HMGB1. Murine macrophage-like RAW 264.7 cells (American Type Culture Collection, ATCC, Rockville, Md.) were cultured in a 24-well culture dish in RPMI 1640 medium (Life Technologies, Grand Island, N.Y.), supplemented with 10% fetal bovine serum (Gemini, Catabasas, Calif.), penicillin and streptomycin (Life Technologies). Cells were used at 90% confluence and treatment was carried out in serum-free Opti-MEM I medium (Life Technologies). The cells were treated with LPS (200 ng/ml, Sigma, E. coli. 0111:B4) and various concentrations, ranging from 0.1 to 10 μM, of either the caspase inhibitor, Z-VAD-FMK (BD Biosciences), or a control peptide, Z-FA-FMK (BD Biosciences), in Opti-MEM I medium (Life Technologies, Grand Island, N.Y.). After 16 h, cell culture supernatants were concentrated by Centricon 10 (Millpore Corp., Bedford, Mass.) and HMGB1 levels were determined by Western blot. […] Western blots were scanned with a silver image scanner (Silverscanner II, Lacie Limited, Beaverton, Oreg.), and the relative band intensity was quantified using the NIH image 1.59 software. The levels of HMGB1 were calculated with reference to standard curves generated with purified HMGB1.

apoptotic cells = assay: Caspase 3 and TUNEL staining of spleen and thymus sections of CLP septic mice; type: in vivo, BALB/c mice; details: 0.5 mg IP at 90 min after surgery, 24 h
Description: Cecal ligation and puncture (CLP) surgery was performed on BALB/c mice to induce sepsis as described previously (Fink, M. P. and Heard, S. O., J. Surg. Res. 49:186-96 (1990); Friedman, G., et al., Crit. Care Med. 26:2078-86 (1998); Remick, D., et al., Shock 4:89-95 (1995)). At 90 min after the surgery, 0.5 mg of either Z-VAD-FMK (VAD) caspase inhibitor or Z-FA-FMK control peptide was administered to each mouse by intraperitoneal injection. Mice were euthanized 24 h after CLP.
Apoptotic cells were detected by performing Caspase 3 staining (FIG. 8A) and TUNEL staining (FIG. 8B) on fixed spleen and thymus sections from sacrificed mice that were either untreated (Normal) or treated with Z-VAD-FMK (VAD) caspase inhibitor (CLP+VAD) or Z-FA-FMK control peptide (CLP+ctrl) following CLP surgery. […] mice were analyzed in each group. Tissue sections were cut at 5 μm. Sections were placed on glass slides and subjected to staining using a TUNEL assay, performed according to manufacturer's protocol (ApoAlert DNA fragmentation assay kit, BD BioSciences, Palo Alto, Calif., Cat# K2024-1). […] Four to five mice were analyzed from each group.

IL-6, KC, MIP-2 = assay: Cytokine levels (IL-6, KC, MIP-2) in serum and BAL of CLP septic mice by ELISA; type: in vivo, BALB/c mice; details: 0.5 mg IP at 90 min after surgery, 24 h
Description: (§1) Cecal ligation and puncture (CLP) surgery was performed on BALB/c mice to induce sepsis as described previously (Fink, M. P. and Heard, S. O., J. Surg. Res. 49:186-96 (1990); Friedman, G., et al., Crit. Care Med. 26:2078-86 (1998); Remick, D., et al., Shock 4:89-95 (1995)). At 90 min after the surgery, 0.5 mg of either Z-VAD-FMK (VAD) caspase inhibitor or Z-FA-FMK control peptide was administered to each mouse by intraperitoneal injection. Mice were euthanized 24 h after CLP. HMGB1 protein levels in bronchoalveolar fluid (BAL), peritoneal fluid and serum were measured (FIG. 6). Protein levels of certain serum (e.g., IL-6, KC, MIP-2) and BAL (e.g., KC, MW-2) cytokines were determined (FIG. 7). Cell-conditioned medium, lung lavage fluid or peritoneal lavage fluid (100-2000) were first concentrated by passing through Centricon 10 (Millpore Corp. Bedford, Mass.). Cytokines were measured by using an enzyme-linked immunosorbent assay (ELISA) kit according to the instructions of the manufacturer (R & D System Inc., Minneapolis, Minn.). To determine HMGB1 concentrations, Centricon 10-filtered samples were fractionated by SDS-PAGE, transferred to PVDF Immunoblot membrane (Bio-Rad laboratories, Hercules, Calif.), and probed with polyclonal anti-HMGB1 IgG (5 μg/ml) for Western blot. Donkey anti-rabbit IgG conjugated with HRP (Amersham, Little Chalfont Buckinghamshire, England) and used at final dilution of 1:5,000. Polyclonal antibodies raised against purified HMGB1 were generated in rabbits (Cocalico Biologicals, Inc., Reamstown, Pa.) and IgG was purified using protein A agarose according to manufacturer's instructions (Pierce, Rockford, Ill.). Western blots were scanned with a silver image scanner ([…] Limited, Beaverton, Oreg.), and the relative band intensity was quantified by using the NIH image 1.59° software. The levels of HMGB1 were calculated with reference to standard curves generated with purified HMGB1.

HMGB1 = HMGB1 protein levels in BAL, peritoneal fluid and serum of CLP septic mice; type: in vivo, BALB/c mice; details: 0.5 mg IP at 90 min after surgery, 24 h, BAL fluid
Description: as §1, with “To determine HMGB1 concentrations, Centricon 10-filtered samples were fractionated by SDS-PAGE, transferred to PVDF Immunoblot membrane (Bio-Rad laboratories, Hercules, Calif.), and probed with polyclonal anti-HMGB1 IgG (5 μg/ml) for Western blot. Donkey anti-rabbit IgG conjugated with HRP (Amersham, Little Chalfont Buckinghamshire, England) and used at final dilution of 1:5,000. Polyclonal antibodies raised against purified HMGB1 were generated in rabbits (Cocalico Biologicals, Inc., Reamstown, Pa.) and IgG was purified using protein A agarose according to manufacturer's instructions (Pierce, Rockford, Ill.).” left out

Row | Structure (SMILES) | HMGB1 translocation to the cytoplasm (RAW 264.7 cells [1]) | LPS-induced expression of HMGB1 protein (RAW 264.7 cells [2]) | number of apoptotic cells in spleen and thymus sections (apoptotic cells) | IL-6 expression in septic mice (IL-6, KC, MIP-2) | KC expression in septic mice (IL-6, KC, MIP-2) | MIP-2 expression in septic mice (IL-6, KC, MIP-2) | HMGB1 expression in septic mice (HMGB1)
1 | COC(=O)CC(NC(=O)C(C)NC(=O)C(NC(=O)OCc1ccccc1)C(C)C)C(=O)CF (stereo not drawn) [Z-VAD-FMK, carbobenzoxyl-valyl-alanyl-aspartyl-[O-methyl]-fluoromethylketone] (Cbz-Val-Ala-Asp(OMe)-CH2F; configuration not given here) | inhibited HMGB1 translocation to the cytoplasm | inhibited LPS-induced expression of HMGB1 protein in a dose-dependent manner | reduced the number of apoptotic cells | inhibited expression | inhibited expression | inhibited expression | inhibited expression
2 | CC(NC(=O)[C@H](Cc1ccccc1)NC(=O)OCc1ccccc1)C(=O)CF (some centres unmarked) [Z-FA-FMK] | – | did not have an effect on HMGB1 expression | – | – | – | – | –
